Measurements taken from US8507472B2 (priority 2010, dated 2013).

Tests used:
Sphaerotheca fuliginea = assay: Sphaerotheca test (cucumber)/protective; type: in vivo; settings: in vivo
In short: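 Protective test: young cucumber plants sprayed with compound (DMF/alkylaryl polyglycol ether concentrate diluted in water) at the stated rate, inoculated with S. fuliginea spores 1 day later, then kept in greenhouse at 23 °C, 70% RH. Efficacy scored 7 days post-inoculation; 0% equals untreated control, 100% means no infection.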

Pyrenophora teres = Pyrenophora teres test (barley)/protective; type: in vivo; settings: in vivo
In short: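 Protective test: young barley plants sprayed at the stated rate with compound in DMF/alkylaryl polyglycol ether diluted with water, inoculated with P. teres spores 1 day later, kept 48 h at 100% rel. humidity and 22° C., then greenhouse at 80% and 20° C. Efficacy scored 7-9 days post-inoculation (0% = control, 100% = no infection).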

Fusarium graminearum [1] = type: in vivo; settings: in vivo
[2] = system: Fusarium nivale (var. majus); assay: Fusarium nivale (var. majus) test (wheat)/protective; type: in vivo; settings: 1000 ppm active compound, protective, evaluation 5 days after inoculation
Method: (§1) Solvent: 49 parts by weight of N,N-dimethylacetamide
(§2) Emulsifier: 1 part by weight of alkylaryl polyglycol ether
(§3) To produce a suitable preparation of active compound, 1 part by weight of active compound is mixed with the stated amounts of solvent and emulsifier, and the concentrate is diluted with water to the desired concentration.
(§4) To test for protective activity, young plants are sprayed with the active compound preparation at the stated application rate.
After the spray coating has dried on, the plants are sprayed with spores of a spore suspension of Fusarium nivale (var. majus).
The plants are placed in a greenhouse chamber under a translucent incubation hood at 10° C. and 100% relative atmospheric humidity.
Evaluation is carried out 5 days after the inoculation. 0% means an efficacy which corresponds to that of the control, whereas an efficacy of 100% means that no infection is observed.

Fusarium graminearum [3] = assay: microbe, parasite or virus in culture; type: cell-based; settings: 50 μM
DON/AcDON production = assay: microbe, parasite or virus in culture; type: cell-based, Fusarium graminearum; settings: 7 days at 28° C.
Venturia inaequalis = assay: Venturia test (apple)/protective; type: in vivo; settings: 100 ppm active compound, protective, evaluation 10 days after inoculation
Method: Solvents: 24.5 parts by weight of acetone • 24.5 parts by weight of dimethylacetamide Emulsifier: 1 part by weight of alkylaryl polyglycol ether
(§5) To produce a suitable preparation of active compound, 1 part by weight of active compound is mixed with the stated amounts of solvents and emulsifier, and the concentrate is diluted with water to the desired concentration.
(§6) To test for protective activity, young plants are sprayed with the active compound preparation at the stated application rate. After the spray coating has dried on, the plants are inoculated with an aqueous conidia suspension of the apple scab pathogen Venturia inaequalis and then remain in an incubation cabin at about 20° C. and 100% relative atmospheric humidity for 1 day.
(§7) The plants are then placed in a greenhouse at about 21° C. and a relative atmospheric humidity of about 90%.
(§8) Evaluation is carried out 10 days after the inoculation. 0% means an efficacy which corresponds to that of the control, whereas an efficacy of 100% means that no infection is observed.

Septoria tritici = Septoria tritici test (wheat)/protective; type: in vivo; settings: in vivo
Method: as §1, §2
To produce a suitable preparation of active compound, 1 part by weight of active compound is mixed with the stated amount of solvent and emulsifier, and the concentrate is diluted with water to the desired concentration.
To test for protective activity, young plants are sprayed with the active compound preparation at the stated application rate. After the spray coating has dried on, the plants are sprayed with a spore suspension of Septoria tritici. The plants remain in an incubation cabin at 20° C. and 100% relative atmospheric humidity for 48 hours. The plants are then placed under a translucent hood at 15° C. and 100% relative atmospheric humidity for a further 60 hours.
The plants are placed in a greenhouse at a temperature of about 15° C. and a relative atmospheric humidity of 80%.
Evaluation is carried out 21 days after the inoculation. 0% means an efficacy which corresponds to that of the control, whereas an efficacy of 100% means that no infection is observed.

Alternaria solani = assay: Alternaria test (tomato)/protective; type: in vivo; settings: in vivo
In short: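 Young tomato plants were sprayed with compound (DMF/emulsifier formulation diluted in water) and inoculated with A. solani spores 1 day later. Plants were kept 24 h at 100% RH and 22 °C, then at 96% RH and 20 °C. Efficacy was scored 7 days post-inoculation, where 0% equals untreated control and 100% means no infection.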

Puccinia triticina = Puccinia triticina test (wheat)/protective; type: in vivo; settings: in vivo
Method: Solvent: 49 parts by weight of […]
as §2, §3, §4
After the spray coating has dried on, the plants are sprayed with spores of a spore suspension of Puccinia triticina. The plants remain in an incubation cabin at 20° C. and 100% relative atmospheric humidity for 48 hours.
The plants are placed in greenhouse at a temperature of about 20° C. and a relative atmospheric humidity of about 80%.
Evaluation is carried out 8 days after the inoculation. 0% means an efficacy which corresponds to that of the control, whereas an efficacy of 100% means that no infection is observed.

Uromyces appendiculatus = assay: Uromyces test (bean)/protective; type: in vivo; settings: in vivo
Method: (§9) Solvents: 24.5 parts by weight of acetone
(§10) • 24.5 parts by weight of dimethylacetamide Emulsifier: 1 part by weight of alkylaryl polyglycol ether
as §5
as §6, with “spore” for “conidia”, “bean rust” for “apple scab”, “Uromyces appendiculatus” for “Venturia inaequalis”
as §7, §8

Leptosphaeria nodorum = Leptosphaeria nodorum test (wheat)/protective; type: in vivo; settings: in vivo
In short: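 Young wheat plants were sprayed protectively, then inoculated 1 day later with L. nodorum spores and held 48 h at 100% humidity and 22° C. They were then kept in a greenhouse at 90% humidity and 22° C. Efficacy was scored 7-9 days post-inoculation, where 0% equals control and 100% means no infection.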

Botrytis cinerea = assay: Botrytis test (bean)/protective; type: in vivo; settings: 100 ppm active compound, protective, evaluation 2 days after inoculation
Method: as §9, §10, §5
To test for protective activity, young plants are sprayed with the active compound preparation at the stated application rate. After the spray coating has dried on, 2 small pieces of agar colonized by Botrytis cinerea are placed onto each leaf. The inoculated plants are placed in a dark chamber at about 20° C. and 100% relative atmospheric humidity.
2 days after the inoculation, the size of the infected areas on the leaves is evaluated. 0% means an efficacy which corresponds to that of the control, whereas an efficacy of 100% means that no infection is observed.

Phytophthora infestans = type: in vivo; settings: in vivo

SMILES	efficacy in % (Sphaerotheca fuliginea)	efficacy in % (Pyrenophora teres)	efficacy in % (Fusarium graminearum [1])	efficacy in % [2]	% inhibition of the fungal growth of Fusarium graminearum at 50 μM (Fusarium graminearum [3])	% inhibition of DON/AcDON at 50 μM (DON/AcDON production)	efficacy in % (Venturia inaequalis)	efficacy in % (Septoria tritici)	efficacy in % (Alternaria solani)	efficacy in % (Puccinia triticina)	efficacy in % (Uromyces appendiculatus)	efficacy in % (Leptosphaeria nodorum)	efficacy in % (Botrytis cinerea)	efficacy in % (Phytophthora infestans)
CC(C)(O)C(=O)Nc1cc(-c2c(-c3ccccc3)nn3c2CCCC3)ccn1 [Example 50]	94%	95%	83%	83%	57%	92%	88%	90%	95%	86%	–	–	–	–
CC(C)C(=O)Nc1cc(-c2c(-c3ccc(F)cc3)nn3c2CCC3C)ccn1 (centres unmarked) [Example 77]	–	–	90%	100%	–	–	100%	100%	89%	88%	98%	94%	100%	–
CC1CCc2c(-c3ccncc3F)c(-c3ccc(F)cc3)nn21 (centres unmarked) [Example 117]	95%	100%	100%	100%	–	–	100%	100%	94%	100%	90%	86%	100%	–
COC(=O)Nc1cc(-c2c(-c3ccccc3)nn3c2CCCC3)ccn1 [Example 27]	–	90%	94%	86%	56%	99%	89%	–	100%	75%	94%	–	92%	80%
CCC(=O)Nc1cc(-c2c(-c3ccc(F)cc3)nn3c2CCC3C)ccn1 (centres unmarked) [Example 76]	100%	–	90%	100%	–	–	100%	100%	100%	88%	95%	89%	100%	–
O=CNc1cc(-c2c(-c3ccc(F)cc3)nn3c2CCCC3)ccn1 [Example 36]	94%	89%	93%	88%	94%	99%	–	100%	–	78%	85%	90%	–	80%
Fc1ccc(-c2nn3c(c2-c2ccncc2)CCCCC3)cc1 [Example 43]	–	95%	–	80%	100%	98%	98%	100%	94%	100%	90%	90%	99%	70%
